Results taken from PubChem BioAssay (NCI).
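How tested: cells in 96-well plates exposed to compound for 48 hours at five concentrations. TGI: concentration producing complete growth inhibition.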

Columns and labels:
Assay in all cases: NCI anticancer screen, dose series, 48 h
DMS 273 small cell lung = tested on: DMS 273 small cell lung
SK-MEL-2 melanoma = tested on: SK-MEL-2 melanoma
SW-620 colon = tested on: SW-620 colon
MOLT-4 leukemia = tested on: MOLT-4 leukemia
HOP-92 NSCLC = tested on: HOP-92 NSCLC
HCC-2998 colon = tested on: HCC-2998 colon
NCI-H23 lung = tested on: NCI-H23 lung
TK-10 renal = tested on: TK-10 renal
A498 renal = tested on: A498 renal
HOP-18 NSCLC = tested on: HOP-18 NSCLC

Structure (SMILES) | TGI (DMS 273 small cell lung) [µM] | TGI (SK-MEL-2 melanoma) [µM] | TGI (SW-620 colon) [µM] | TGI (MOLT-4 leukemia) [µM] | TGI (HOP-92 NSCLC) [µM] | TGI (HCC-2998 colon) [µM] | TGI (NCI-H23 lung) [µM] | TGI (TK-10 renal) [µM] | TGI (A498 renal) [µM] | TGI (HOP-18 NSCLC) [µM]
COC(=O)Nc1nc2ccc(Br)cc2[nH]1 | > 100 | 62.6 | > 100 | > 100 | > 100 | > 100 | 80.7 | > 100 | > 100 | > 100
CN(C)CC/[N+]([O-])=C(/c1ccccc1)C12CC3CC(CC(C3)C1)C2 |  | 34.9 |  | 34.1 | 28.8 | 37.6 | 37.4 | 30.7 | 32.6 | 35.6
O=C(c1ccccc1)c1cn(/N=C\c2ccccc2)c(=O)nc1-c1ccccc1 |  | > 100 | > 100 | > 100 | > 100 | > 100 | > 100 | > 100 | > 100 | > 100
CN1C(=O)C2C(C1=O)C1(O)c3ccccc3C2(N)c2ccccc21 (stereo not drawn) | > 100 | > 100 | > 100 | > 100 | > 100 | > 100 | > 100 | > 100 | > 100 | > 100
Cc1cc(Cl)ccc1NC(=O)CC1SC(=Nc2ccccc2Cl)NC1=O (stereo not drawn) | > 100 | > 100 | > 100 | > 100 | > 100 | > 100 | > 100 | > 100 | > 100 | > 100
O=C(O)CCc1nn2c(nc1=O)sc1ccc3ccccc3c12 | > 100 |  | > 100 | > 100 | > 100 | > 100 | > 100 | > 100 |  | > 100
Cn1cc2ccccc2c1-c1nc(F)nc(OCC(=O)[C@H]2CCC3[C@@H]4CCC5=CC(=O)CC[C@]5(C)C4[C@@H](O)C[C@@]32C)n1 (stereo partly drawn) | 36.1 | 31.3 | 33.4 | 54.3 | 36.6 | 48.4 | 16.5 | 47.9 | > 54 | 29.2
O=Cc1c(O)c(C(=O)Nc2ccc3[nH]c(=O)[nH]c3c2)cc2ccccc12 | > 100 | > 100 | > 100 | > 100 | > 100 | > 100 | > 100 | > 100 | > 100 | > 100
Cc1cccc(C)c1NC(=O)C(=O)Nn1c(NN)nc2ccccc2c1=O | > 100 | > 100 | > 100 | > 100 | > 100 | > 100 | > 100 | > 100 | > 100 | > 100
NC(N)=NS(=O)(=O)c1ccc(Nc2c3ccccc3nc3c(C(=O)Nc4ccc(S(N)(=O)=O)cc4)cccc23)cc1 | > 100 | > 100 | > 100 | > 100 | > 100 | > 100 | > 100 | > 100 | > 100 | > 100
Cc1cc2c(C)nn(Cc3ccc(Cl)cc3)c2c(C#N)c1C | > 100 | > 100 | > 100 |  | 95.1 | > 100 | > 100 | > 100 |  | > 100
